Measured values published in patent US9538763B2, “Cleaning, disinfecting and microbicidal compositions” (priority 2009, dated 2017).

Experiments:
Format in all cases: cell-based
Escherichia coli = assay: modified detergent and germicidal sanitizer test of the A.O.A.C.; settings: 50 ppm hypochlorite control
Method: (§1) The microbicidal efficacy of the microbicidal disinfecting compositions of Examples 1-3 (compositions A-C) were evaluated with 50 ppm of hypochlorite as a control against Staphylococcus aureus and Escherichia coli by the modified detergent and germicidal sanitizer test of the A.O.A.C. (Lopes, 1986).

Staphylococcus aureus = assay: as above; settings: 50 ppm hypochlorite control
Method: as §1

Salmonella = assay: treatment of Salmonella-contaminated tomatoes; settings: 150 ppm
Method: The microbicidal efficacy of the microbicidal disinfecting composition of Example 1 (composition A) was further tested and proven effective against Salmonella on contaminated tomatoes. When Salmonella-contaminated tomatoes were treated with 0.1% solution of composition A, the viable bacterial population was reduced by 2.31 log10 CFU as compared with 2.11 log10 CFU with 150 ppm of hypochlorite.

OCl [Hypochlorite, hypochlorite]
% Kill E. coli (Escherichia coli): >99.999%
% Kill Staph. aureus (Staphylococcus aureus): >99.999%
reduction of viable bacterial population (Salmonella): 2.11 log10 CFU
